In paper PMC11477482 (Molecules, 2024):

Test system: RAW264.7 cells (mitochondrial O2− production)
Assay: Mitochondrial antioxidant activity (MitoSOX, rotenone-induced superoxide)
Type: cell-based, mouse
Conditions: rotenone 20 μM alone, oxidative stress inducer
Experimental: The human keratinocytes (HaCaT, CLS 300493, Eppelheim, Germany) cell line was cultured with Dulbecco’s Modified Eagle’s Medium (DMEM) (Sigma-Aldrich, St. Louis, MO, USA), supplemented with 10% (v/v) of heat-inactivated fetal bovine serum (FBS), 1% (v/v) antibiotic solution (from a 10,000 U/mL penicillin and 10,000 μg/mL streptomycin stock) (Gibco, Carlsbad, CA, USA), 3.7 g/L sodium bicarbonate, and 1 mM sodium pyruvate (Sigma-Aldrich, St. Louis, MO, USA). The cell culture of keratinocytes was detached with EDTA solution 1X (Sigma-Aldrich, St. Louis, MO, USA) when the cells reached 70–80% confluence in cell culture flasks. The mouse macrophage cell line (RAW 264.7, ATCC TIB-71, Manassas, VA, USA) was cultured in DMEM supplemented with 10% (v/v) non-inactivated FBS, 1% (v/v) antibiotic solution, 1.5 g/L sodium bicarbonate, and 1 mM sodium pyruvate. Macrophages were mechanically detached with a cell scraper and subcultured in (1:10) proportion of cellular suspension to a final volume of DMEM. The human monocytic cell line THP-1 (ATCC® TIB-202™, American Type Culture Collection, Manassas, VA, USA) was cultivated in RPMI 1640 supplemented with 10% inactivated FBS, 25 mM (D)-glucose, 10 mM HEPES, 1 mM sodium pyruvate, 100 U/mL penicillin, and 100 μg/mL streptomycin, and maintained at a cell density of 0.4 × 10^6 cells/mL. Cells were subcultured every 2 or 3 days and maintained in culture for 2–3 months, according to ATCC® instructions.
Mitochondrial superoxide (O2^−) generation was determined using the MitoSOX Red kit, according to the manufacturer’s instructions. Briefly, 5.0 × 10^5 cells/mL were plated in a 12-well plate and incubated for 24 h at 37 °C. The cells were then exposed to the AA, AAG and AAGS solution (500 µM), and after 1 h, rotenone (20 μM) was added, followed by incubation for an additional 5 h. The cells were then carefully detached, transferred to microtubes, and centrifuged at 500× g for 3 min. The cell pellet was washed with HBSS solution (2 × 1 mL), resuspended in PBS solution, and 300 µL was collected in two microtubes for unstained (150 µL) and stained (150 µL) conditions. The stained cells were incubated with 100 μL of freshly prepared MitoSOX solution 2.5 µM at 37 °C for 15 min in the dark. The stained cells were washed with HBSS solution (2 × 1 mL), and the cell pellet was resuspended in 100 μL of PBS and analyzed by flow cytometry using a BD Accuri™ C6 cytometer (San Jose, CA, USA).
CD86 and CD54 levels were analyzed by flow cytometry using the acquisition channels FL1 and FL4. Mitochondrial O2^− production was measured by flow cytometry using the acquisition channel FL2. The relative fluorescence intensity (RFI) of CD86 and CD54 (THP-1 maturation assay) and MitoSOX (mitochondrial antioxidant activity) in the control and chemical-treated cells, based on the geometric mean fluorescence intensity (MFI), was calculated according to the following equation: RFI=MFI of chemical treated cells−MFI of chemical treated unstained cells/MFI of control treated cells−MFI of control unstained cells ×100

C=C(C)[C@H]1Cc2c(ccc3c2O[C@@H]2COc4cc(OC)c(OC)cc4[C@@H]2C3=O)O1 [Rotenone]
relative fluorescence intensity (RFI) of MitoSOX: 269.70 ± 11.63%
